Assay results as given in EP0452680A1 (priority 1990, dated 1991).

What was measured:
[1] = tested on: Herpesviren; assay: General statement on antiviral activity (no specific test named); conditions: qualitative statement in the description
[2] = in vitro; conditions: monkey, vero cells
[3] = in vitro; conditions: monkey, vero cells; remark: listed apart in the source
[4] = in vitro; conditions: bovine, mdbk cells
[5] = in vitro; conditions: human, hela cells

Structure (SMILES)	antivirale Aktivität gegen Herpesviren [1]	MNTC [2] [µg/mL]	MNTC [3] [µg/mL]	MNTC [4] [µg/mL]	MNTC [5] [µg/mL]
CC(C)OCC(COC(C)C)OCn1cnc2nc(N)ncc21 [Beispiel 6.7., 2-Amino-7-[1,3-bis(isopropoxy)-2-propoxymethyl]purin]	besonders hohen antiviralen Aktivität	> 400	> 400	> 400	> 400
CC(C)OCC(CO)OCn1cnc2nc(N)ncc21 (centres unmarked) [Beispiel 6.10., 2-Amino-7-(1-hydroxy-3-isopropoxy-2-propoxymethyl)-purin]	besonders hohen antiviralen Aktivität	> 400	> 400	> 400	> 400
Nc1ncc2c(ncn2COC(CO)CO)n1 [Beispiel 6.12., 2-Amino-7-(1,3-dihydroxy-2-propoxymethyl)-purin]	besonders hohen antiviralen Aktivität	133	133	> 400	44.4
Nc1nc2ncn(COC(CO)CO)c2c(=O)[nH]1 [reference compound]		> 400	> 400	> 400	> 400
Nc1nc(O)c2ncn(COC(CO)CO)c2n1 [reference compound]		> 400	> 400	> 133	> 400
